Assay results reported in patent US20240122875A1, “USE OF MITOXANTRONE HYDROCHLORIDE LIPOSOME” (CSPC ZHONGQI PHARMACEUTICAL TECHNOLOGY (SHIJIAZHUANG) CO., …, priority 2021, published 2024).
Where a name gives a salt, the structure may show the parent alone.

Test system: recurrent/metastatic breast cancer
Assay: Inventor's previous clinical research, monotherapy of recurrent/metastatic breast cancer, liposome versus ordinary injection
Type: in vivo, human
Conditions: control group, 14 mg/m^2 every 4 weeks
Description: The inventor's previous clinical research included mitoxantrone hydrochloride monotherapy in the treatment of recurrent/metastatic breast cancer. There were 30 cases in the experimental group and the control group respectively. […] The control group was given mitoxantrone hydrochloride injection in 14 mg/m^2, every 4 weeks as a cycle.

O=C1c2c(O)ccc(O)c2C(=O)c2c(NCCNCCO)ccc(NCCNCCO)c21 [mitoxantrone hydrochloride injection, mitoxantrone hydrochloride]
ORR (2/30): 6.7%
DCR (9/30): 30%
PR (30 cases): 2 cases
